In paper PMC4429810, “Heat shock protein 90 inhibitors repurposed against Entamoeba histolytica” (Frontiers in Microbiology, 2015):
Structures can show the parent of a compound that is named as a salt.

Experiments:
[1] = target: T1, EhHsp90 ATP-binding domain (Entamoeba histolytica, UniProt C4MBP1); experiment: bis-ANS fluorescence displacement screen; conditions: read-out: Percent inhibition of fluorescence in protein screen at 2.5 μM (%)
T1 construct: gene EHI_102270; cloned from genomic DNA in pET28a, E. coli BL21(DE3); His tag said to be cut by TEV; pocket residues C49, C103, R109
T1 sequence (C4MBP1 1-215): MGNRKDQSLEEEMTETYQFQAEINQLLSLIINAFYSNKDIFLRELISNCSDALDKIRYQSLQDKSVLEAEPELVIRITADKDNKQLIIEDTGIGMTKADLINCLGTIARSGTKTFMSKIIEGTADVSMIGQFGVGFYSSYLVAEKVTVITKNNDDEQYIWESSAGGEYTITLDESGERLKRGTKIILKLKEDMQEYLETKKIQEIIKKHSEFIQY
Text: bis-ANS fluorescence displacement screen on EhHsp90 ATP-binding domain

[2] = target: T2, PfHsp90 ATP-binding domain (Plasmodium falciparum, UniProt Q8IC05); experiment: bis-ANS fluorescence displacement screen; conditions: bis-ANS 5 μM, protein 1 μM, Tris pH 7.5, 10 mM MgCl2, 50 mM KCl, 37°C; competition with bis-ANS at ATP-binding domain
T2 construct: gene PF3D7_0708400; from genomic DNA in pET28b, E. coli BL21(DE3); His tag said to be cut by TEV; pocket residues A38, N92, R98
T2 sequence (Q8IC05 1-211): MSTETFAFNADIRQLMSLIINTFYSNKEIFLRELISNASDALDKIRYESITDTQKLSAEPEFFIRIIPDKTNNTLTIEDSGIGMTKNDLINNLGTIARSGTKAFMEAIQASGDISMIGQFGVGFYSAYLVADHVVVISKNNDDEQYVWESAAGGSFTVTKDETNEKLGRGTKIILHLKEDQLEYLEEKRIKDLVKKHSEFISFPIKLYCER

SMILES	inhibition at 2.5 µM [1]	bis-ANS fluorescence displacement screen [2]
O=C1Nc2ccc(I)cc2/C1=C/c1cc(Br)c(O)c(Br)c1 [GW5074]	70.5%	
O=C1c2c(O)ccc(O)c2C(=O)c2c(NCCNCCO)ccc(NCCNCCO)c21 [Mitoxantronedihydrochloride]	95.3%	
COc1ccc2cc3[n+](cc2c1OC)CCc1cc2c(cc1-3)OCO2 [Berberine chloride]	78.3%	
CCN(CC)Cc1cc(Nc2ccnc3cc(Cl)ccc23)ccc1O [Amodiaquindihydrochloride dihydrate]	82.1%	
C[n+]1cc2c3c(ccc2c2ccc4cc5c(cc4c21)OCO5)OCO3 [Sanguinarine sulfate]	71.3%	
CC[C@@]1(O)C[C@H](O[C@H]2C[C@H](N(C)C)[C@H](O)[C@H](C)O2)c2c(cc3c(c2O)C(=O)c2c(O)ccc(O)c2C3=O)[C@H]1C(=O)OC [Rutilantin]	77.1%	
COc1cccc2c1C(=O)c1c(O)c3c(c(O)c1C2=O)C[C@@](O)(C(C)=O)C[C@@H]3O[C@H]1C[C@H](N)[C@H](O)[C@H](C)O1 [Daunorubicin hydrochloride]	83.2%	
CN(C)c1ccc(C(=C2C=CC(=[N+](C)C)C=C2)c2ccccc2)cc1 [WB 64 (Malachite Green)]	84.9%	
O=C1c2ccccc2C(=O)c2c(O)c(O)cc(O)c21 [Purpurin]	75%	
C=CC1=C(C)/C(=C/c2[nH]c(Cc3[nH]c(/C=C4\NC(=O)C(C)=C4C=C)c(C)c3CCC(=O)O)c(CCC(=O)O)c2C)NC1=O [Bilirubin]	73.7%	
CN(C)c1ccc(C(=C2C=CC(=[N+](C)C)C=C2)c2ccc(N(C)C)cc2)cc1 [Gentian Violet]	99.3%	
N#C/C(=C\c1ccc(O)c(O)c1)C(=O)c1ccc(O)c(O)c1 [Tyrphostin AG 538]	75%	
CC(C)/N=c1\cc2n(-c3ccc(Cl)cc3)c3ccccc3nc-2cc1Nc1ccc(Cl)cc1 [Clofazimine]	73.7%	
CCN(CC)CCNc1ccc(CO)c2sc3ccccc3c(=O)c12 [Hycanthone]	90.9%	
N=C1C=CC(=C(c2ccc(N)cc2)c2ccc(N)cc2)C=C1 [Pararosaniline pamoate]	99%	
CO[C@H]1/C=C/O[C@@]2(C)Oc3c(C)c(O)c4c(c3C2=O)C2=NC3(CCN(CC(C)C)CC3)NC2=C(NC(=O)/C(C)=C\C=C\[C@H](C)[C@H](O)[C@@H](C)[C@@H](O)[C@@H](C)[C@H](OC(C)=O)[C@@H]1C)C4=O [Rifabutin]	73.7%	rifabutin showed the highest inhibition against PfHsp90
